Source: PMC9612222, “Comparative Evaluation of the Antiglycation and Anti-α-Glucosidase Activities of Baicalein, Baicalin (Baicalein 7-O-Glucuronide) and the Antidiabetic Drug Metformin” (Pharmaceutics, 2022)
Like-named read-outs stand apart in the source and are kept apart here. Marks after values point to notes of the source that are not given here. Values belong to the compound of their own block, whether it stands above or below them.

Legend:
ORAC assay = conditions: 5.0 µM compound
Description: The radical oxygen absorption capacity (ORAC) assay was performed as previously described. Briefly, trolox was prepared in phosphate buffer over a concentration range of 6.25 to 50 µM. In 24–well plates, 1.5 mL of fluorescein (0.08 µM) was added, followed by 250 µL of trolox for the control, 250 µL of buffer for the blank, and 250 µL of each inhibitor (5.0 µM). After 10 min of incubation, at 37 °C, 250 µL of 0.15 M AAPH was added. Successively, the PerkinElmer Victor Nivo microplate reader (Waltham, MA, USA) was settled for a fluorescence kinetic reading at 37 °C for one hour, with excitation and emission wavelengths, respectively, of 485 and 530 nm. The results were expressed in TEAC (trolox equivalent antioxidant capacity, TE µmol/µmol compound).

[1] = DPPH radical scavenging assay; conditions: for pD2 (−log EC50) antiradical potency: 70 µM DPPH, 60 min
Description: The free radical scavenging activity of the samples was measured using the DPPH^• method. Sample solutions were prepared and added to 70 µM DPPH^•; the mixtures were kept in the dark for 60 min and absorbance was read at 517 nm using a Beckman Coulter DU 8005 spectrophotometer (Fullerton, CA, USA). The radical scavenging capacity was expressed as a percentage effect.

[2] = tested on: α–glucosidase (EC 3.2.1.20, Saccharomyces cerevisiae type I); type: biochemical; conditions: for inhibition of α–glucosidase activity: 50 µM compound
Description: The inhibitory activity of baicalein and baicalin was studied using the yeast α–glucosidase assay, using pNPG as a substrate. The enzyme acts by hydrolyzing pNPG into […] and p–nitrophenol (yellow); the reaction was detected at different inhibitor concentrations by variation in chromatic intensity. Acarbose ([…]) was used as a positive control. Each sample was incubated with several α–glucosidase concentrations (0.035, 0.05, 0.07 and 0.1 µM) in PBS solutions (pH 6.8) for 10 min, at 37 °C. The reaction started with the addition of pNPG. Absorbance values were detected at 405 nm for 60 min, using a PerkinElmer Victor Nivo microplate reader spectrophotometer (Waltham, MA, USA). The half–maximal inhibitory concentration (IC50) was estimated by the plot of relative enzyme activity versus inhibitor concentration. The type of enzyme inhibition exerted by baicalein was evaluated from kinetic studies using different substrate concentrations (0.5, 1.0, 1,5 and 2.0 mM pNPG) through the Michaelis–Menten and Lineweaver–Burk plots.

BSA [3] = test: BSA assay (AGE formation by fluorescence); design: species or system bovine; conditions: for concentration inhibiting glyoxal-induced BSA glycation: 50 mg/mL BSA + 0.003 M glyoxal
Description: Glycated BSA was obtained according to a previously reported method. Briefly, AGEs were detected using BSA (50 mg/mL, pH 7.4), as protein substrate, and glucose (0.8 M), glyoxal (0.003 M) or ribose (0.1 M), as glycation agents. […] The fluorescence intensity was measured at an excitation wavelength of 355 nm and an emission wavelength of 460 nm with a PerkinElmer Victor Nivo microplate reader (Waltham, MA, USA). Inhibition of AGE formation was calculated as the fluorescence difference between glycation under the control condition and in the presence of each inhibitor. Aminoguanidine (2.5 mM, AG) was used as a positive control.

rat α–glucosidase = conditions: cited from earlier work
BSA [4] = test: Carbonyl content assay (BSA–ribose glycation); design: species or system bovine; conditions: 50 mg/mL BSA + 0.1 M ribose; for inhibition of carbonyl increase: not concentration dependent
Description: The total protein–bound carbonyl content was determined by derivatization of the carbonyl group with 2,4–dinitrophenylhydrazine (DNPH), which leads to the formation of a stable dinitrophenylhydrazone product, which was monitored spectrophotometrically at 375 nm with a PerkinElmer Victor Nivo microplate reader (Waltham, MA, USA). Glycated BSA samples were mixed with DNPH solution (10 mM in 2.0 M HCl) for 1 h at 37 °C in the dark. The proteins were precipitated with 20% trichloroacetic acid. The mixture was centrifuged at 10,000× g rpm, 10 min at 4 °C, to obtain a pellet and the supernatant was removed. DNPH was removed by extracting the pellet twice using a solution of ethyl acetate/ethanol (1:1). Lastly, the pellet was dissolved in guanidine hydrochloride (6 M) before reading the absorbance at 375 nm. The concentration of DNPH derivatized proteins was determined by the molar extinction coefficient of 22,000 M^−1 cm^−1 [64]. The protein concentration was measured using a BCA assay, and the protein carbonyl concentration was expressed as nmol/mg of protein. Aminoguanidine (2.5 mM, AG) was used as a positive control.

[5] = GK peptide–ribose assay (peptide cross–linking); conditions: 2 days; for reduction of GK peptide cross–linking (in words): 1–100 µM
Description: The N–acetyl–glycyl–lysine methyl ester (GK) peptide–ribose assay was performed with some modifications to a published method. Briefly, GK peptide (27 mg/mL), a synthetic model peptide, was incubated with 40 mg/mL (0.27 M) D–ribose in sodium phosphate buffer (pH 7.4) and test samples were added at final concentrations ranging from 1.0–100 μM. After 48 h of incubation, fluorescence was read at 355 and 460 nm for excitation and emission wavelengths, respectively, with a PerkinElmer Victor Nivo microplate reader (Waltham, MA, USA). The fluorescence measurement allows the calculation of GK peptide glycation inhibition as a percentage difference between the control condition and glycation in the presence of the inhibitor. Aminoguanidine (2.5 mM, AG) was used as a positive control.

α–glucosidase = conditions: cited from earlier work
HT–29 cells [6] = test: MTT cell viability assay; type: cell-based, human
Description: Cell viability was assessed with the MTT assay. HT–29 cells were seeded in a 96–well plate at a density of 5000 cells in each well and allowed to grow overnight. The cells were treated with various concentrations of the substances. After 24 h of incubation, an aliquot of MTT solution was added to each well, to reach the final concentration of 500 μg/mL. Subsequently, after the MTT reduction by cellular enzymes, the medium was removed and the insoluble formazan salts were solubilized with 2–propanol. The absorbance of each purple formazan solution was measured using a PerkinElmer Victor Nivo microplate reader (Waltham, MA, USA), at a wavelength of 520 nm.

HT–29 cells [7] = test: HT–29 uptake assay (HPLC–DAD); type: in vitro ADME, human; conditions: 1 to 50 µM in cell medium, 30 min–3 h
Description: To evaluate the cellular uptake of compounds, a previously described method was used. Briefly, HT–29 cells were seeded in a 6–well plate at a density of 500,000 cells in each well in a complete medium and allowed to grow until confluence for 48 h, at 37 °C (Figure 11). […] After incubation, an aliquot of the extracellular solution was taken from each well and stored at −20 °C for further analysis. The medium was then removed, the cells were washed with PBS and prepared for the following steps: (i) protein quantification, cells were lysed with 200 μL of lysis buffer and the wells were washed with 200 μL of PBS; and (ii) evaluation of cell uptake, cells were gently scraped with PBS, centrifuged at 1250× g rpm for 5 min, and added with 500 μL of 80% v/v methanolic solution in water/0,1% v/v acetic acid to extract intracellular content. The samples were kept on ice for 15 min, then sonicated and centrifuged at 20,000× g rpm for 10 min. […]
Chromatographic analyses were performed with an HPLC instrument (Waters Corporation, Milford, DE, USA) equipped with a 1525 binary HPLC pump and a 2998 photodiode array detector. […] Peaks were detected in the range of 210–400 nm. […] The amount of each compound was calculated using a standard calibration curve. The protein content of the lysate was detected using the Lowry protein assay, to express the results as nmol/mg protein.

[8] = α–glucosidase 0.035 µM, 2 mM pNPG
[9] = α–glucosidase 0.05 µM, 2 mM pNPG
[10] = α–glucosidase 0.07 µM, 2 mM pNPG
[11] = α–glucosidase 0.10 µM, 2 mM pNPG
[12] = 50 mg/mL BSA + 0.1 M ribose, 5 days
[13] = 50 mg/mL BSA + 0.8 M glucose, 7 days

Compound: CC(=O)N[C@@H](CS)C(=O)O [NAC, N–acetylcysteine]
- TEAC (trolox equivalent antioxidant capacity) (ORAC assay): 1.45 ± 0.01 µmol TE/µmol
- pD2 (−log EC50) antiradical potency [1]: 4.38 ± 0.02

Compound: O=C(O)[C@H]1O[C@@H](Oc2cc3oc(-c4ccccc4)cc(=O)c3c(O)c2O)[C@H](O)[C@@H](O)[C@@H]1O [baicalin, 7–β–D–glucuronic acid of 5,6–trihydroxyflavone]
- effect on α–glucosidase activity (in words) ([2]; 0.05 µM enzyme, 2 mM pNPG, 1–100 µM compound): did not induce any modification
- concentration inhibiting glyoxal-induced BSA glycation (BSA [3]; 7 days): 5 µM
- concentration from which glycated albumin is reduced (BSA [3]; [12]): 5 µM
- concentration from which AGE formation is significantly inhibited (BSA [3]; [13]): 5 µM
- IC50 (rat α–glucosidase; in vitro): > 400 µM
- TEAC (trolox equivalent antioxidant capacity) (ORAC assay): 5.90 ± 0.23 µmol TE/µmol
- concentration range with detectable reduction of carbonyl increase (BSA [4]): 10 to 100 µM
- lowest concentration tested that inhibited carbonyl formation (BSA [4]): 5 µM
- inhibition of carbonyl increase (BSA [4]): 15–25%
- reduction of GK peptide cross–linking (in words) [5]: only slightly and not significantly reduced
- pD2 (−log EC50) antiradical potency [1]: 4.89 ± 0.03

Compound: CN(C)C(=N)NC(=N)N [metformin, 1,1–dimethylbiguanide]
- inhibition of AGE formation (in words) (BSA [3]; [12]): did not achieve any protection
- inhibition of AGE formation (in words) (BSA [3]; [13]): did not show any significant inhibition
- inhibition of AGE formation (in words) (BSA [3]; 1–100 µM, glucose, glyoxal and ribose (Figure 3)): did not show a significant effect
- TEAC (trolox equivalent antioxidant capacity) (ORAC assay): 0.48 ± 0.10 µmol TE/µmol
- reduction of GK peptide cross–linking (in words) [5]: not active
- DPPH scavenging effect (in words) ([1]; 0.1 to 500 µM): did not show any scavenging effect

The next lines start with results.

- pD2 (−log EC50) antiradical potency [1]: 4.77 ± 0.04
Compound: O=C1O[C@H]([C@@H](O)CO)C(O)=C1O [ascorbic acid]
- TEAC (trolox equivalent antioxidant capacity) (ORAC assay): 0.65 ± 0.01 µmol TE/µmol

- inhibition of α–glucosidase activity ([2]; 0.035 µM α–glucosidase): about 90%
- inhibition of α–glucosidase activity ([2]; 0.05 µM α–glucosidase): ~75%
- type of enzyme inhibition ([2]; Lineweaver–Burk plot, 0.05 µM enzyme, 0.5–2.0 mM pNPG): mixed–type
- Ki ([2]; mixed–model inhibition, 0.05 µM enzyme, 0.5–2.0 mM pNPG, read-out: inhibition constant (Ki)): 25.9 µM
- IC50 [2, 8]: 18.1 µM
- pD2 (−Log IC50) [2, 8]: 4.74 ± 0.02 ^a
- IC50 [2, 9]: 24.1 µM
- pD2 (−Log IC50) [2, 9]: 4.62 ± 0.04 ^a
- IC50 [2, 10]: 51.6 µM
- pD2 (−Log IC50) [2, 10]: 4.29 ± 0.07 ^a
- IC50 [2, 11]: 555 µM
- pD2 (−Log IC50) [2, 11]: 3.26 ± 0.26 ^b
- IC50 ([5]; GK peptide + ribose, read-out: IC50 of AGE formation (GK cross–linking)): 49.7 ± 0.5 µM
- pD2 (−log EC50) antiradical potency [1]: 4.91 ± 0.01
- parent compound after incubation with cells (in words) (HT–29 cells [7]): no longer measurable
Compound: O=c1cc(-c2ccccc2)oc2cc(O)c(O)c(O)c12 [baicalein, 5,6,7–trihydroxyflavone]
- concentration inhibiting glyoxal-induced BSA glycation (BSA [3]; 7 days): 10 µM
- concentration from which glycated albumin is reduced (BSA [3]; [12]): 5 µM
- concentration from which AGE formation is significantly inhibited (BSA [3]; [13]): 5 µM
- Ki (rat α–glucosidase; ref 49): 14.6 µM
- TEAC (trolox equivalent antioxidant capacity) (ORAC assay): 5.41 ± 0.33 µmol TE/µmol
- concentration range with detectable reduction of carbonyl increase (BSA [4]): 10 to 100 µM
- inhibition of carbonyl increase (BSA [4]): 15–25%
- pD2 of AGE formation (GK cross–linking) ([5]; GK peptide + ribose): 4.3
- Ki (α–glucosidase; ref 53): 45 µM
- Ki (α–glucosidase; ref 54): 44 µM
- change of cell viability (HT–29 cells [6]; 5 µM): −25 % of the control
- IC50 (HT–29 cells [6]; Homo sapiens, HT-29, 0.1 to 50 µM, 24 h, read-out: pD2 for inhibition of HT–29 cell viability (converted)): 36.3 µM
